pIC50: −log10 of the molar value.
How the values were obtained:
human cathepsin K = human cathepsin K (UniProt P43236); test: Cathepsin K Assay (hrbCat K); type: biochemical; conditions: human cathepsin K 0.4 nM, Z-Leu-Arg-AMC 8 μM, pH 5.5, 15 min preincubation; read-out: hrbCat K IP
Protocol: Cathepsin K Assay (hrbCat K)
(§1) Serial dilutions (⅓) from 500 μM down to 0.025 μM of test compounds were prepared in dimethyl sulfoxide (DMSO). Then 0.5 μL of DMSO from each dilution were added to 18.75 μL of assay buffer (MES, 50 mM (pH 5.5); EDTA, 2.5 mM; DTT, 2.5 mM and 10% DMSO) containing human cathepsin K (0.4 nM) in assay buffer solution. The assay solutions were mixed for 5-10 seconds on a shaker plate and incubated for 15 minutes at room temperature. Z-Leu-Arg-AMC (8 μM) in 6.25 μL of assay buffer was added to the assay solutions. Hydrolysis of the coumarin leaving group (AMC) was followed by spectrofluorometry (Exλ=360 nm; Emλ=460 nm) for 30 minutes. Percent of inhibition were calculated by fitting experimental values to standard mathematical model for dose response curve.

human cathepsin F = target: T1, human cathepsin F (Homo sapiens, UniProt Q9UBX1); test: Cathepsin F assay (hCat F); type: biochemical; conditions: human cathepsin F 10 nM, Z-Phe-Arg-AMC 8 μM, pH 5.5, 15 min preincubation; read-out: hCat F IP
T1 sequence (Q9UBX1 271-484): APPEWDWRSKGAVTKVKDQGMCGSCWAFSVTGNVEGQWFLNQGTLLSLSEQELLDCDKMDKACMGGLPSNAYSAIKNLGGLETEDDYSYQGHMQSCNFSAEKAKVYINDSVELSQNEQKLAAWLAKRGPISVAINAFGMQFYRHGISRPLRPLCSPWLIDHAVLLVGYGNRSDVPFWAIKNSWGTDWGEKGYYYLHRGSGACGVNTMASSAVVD
Protocol: Cathepsin F assay (hCat F)
as §1, with “F (10” for “K (0.4”, “Z-Phe-Arg-AMC” for “Z-Leu-Arg-AMC”, “(Exp, =360” for “(Exλ=360”, “EmX=460” for “Emλ=460”, “20” for “30”

SMILES	pIC50 (human cathepsin K)	pIC50 (human cathepsin F)
N#CC1(NC(=O)[C@@H]2CCCC[C@H]2c2oc(-c3ccc(F)cc3)nc2-c2ccc(N3CC4CC3CS4(=O)=O)cc2)CC1 (mixture of isomers) [Example 87, (1R,2R)-N-(1-cyanocyclopropyl)-2-(4-(4-((1R,4R and 1S,4S)-2,2-dioxido-2-thia-5-azabicyclo[2.2.1]heptan-5-yl)phenyl)-2-(4-fluorophenyl)oxazol-5-yl)cyclohexanecarboxamide]	8.39	5.91
N#CC1(NC(=O)[C@@H]2CCCC[C@H]2c2oc(C3CC4CCC(C3)C4(F)F)nc2-c2ccc(N3CCS(=O)(=O)CC3)cc2)CC1 (mixture of isomers) [Example 109, (1R,2R)-N-(1-cyanocyclopropyl)-2-(2-((1R,3R,5S and 1R,3S,5S)-8,8-difluorobicyclo[3.2.1]octan-3-yl)-4-(4-(1,1-dioxidothiomorpholino)phenyl)oxazol-5-yl)cyclohexanecarboxamide]	8.77	5.82
N#CC1(NC(=O)[C@@H]2CCCC[C@H]2c2oc(C3CCC(C(F)(F)F)CC3)nc2-c2ccc(N3CCS(=O)(=O)CC3)cc2)CC1 (mixture of isomers) [Example 111, (1R,2R)-N-(1-cyanocyclopropyl)-2-(4-(4-(1,1-dioxidothiomorpholino)phenyl)-2-((1R,4R and 1S,4S)-4-(trifluoromethyl)cyclohexyl)oxazol-5-yl)cyclohexanecarboxamide]	8.74	5.97
N#CC1(NC(=O)[C@@H]2CCCC[C@H]2c2oc(C3CCC(F)(F)C3)nc2-c2ccc(N3CCS(=O)(=O)CC3)cc2)CC1 (mixture of isomers) [Example 114, (1R,2R)-N-(1-cyanocyclopropyl)-2-(2-((R and S)-3,3-difluorocyclopentyl)-4-(4-(1,1-dioxidothiomorpholino)phenyl)oxazol-5-yl)cyclohexanecarboxamide]	8.77	5.82
COC(c1ccccc1)(c1nc(-c2ccc(N3CCS(=O)(=O)CC3)cc2)c([C@@H]2CCCC[C@H]2C(=O)NC2(C#N)CC2)o1)C(F)(F)F (mixture of isomers) [Example 116, (1R,2R)-N-(1-cyanocyclopropyl)-2-(4-(4-(1,1-dioxidothiomorpholino)phenyl)-2-((R and S)-2,2,2-trifluoro-1-methoxy-1-phenylethyl)oxazol-5-yl)cyclohexanecarboxamide]	8.86	5.92
COC1CC(c2nc(-c3ccc(N4CCS(=O)(=O)CC4)cc3)c([C@@H]3CCCC[C@H]3C(=O)NC3(C#N)CC3)o2)C1 (mixture of isomers) [Example 117, (1R,2R)-N-(1-cyanocyclopropyl)-2-(4-(4-(1,1-dioxidothiomorpholino)phenyl)-2-((1R,3R and 1S,3S)-3-methoxycyclobutyl)oxazol-5-yl)cyclohexanecarboxamide]	8.84	5.65
N#CC1(NC(=O)[C@@H]2CCCC[C@H]2c2oc(C3CC4CC4C3)nc2-c2ccc(N3CCS(=O)(=O)CC3)cc2)CC1 (mixture of isomers) [Example 118, (1R,2R)-2-(2-((1R,3R,5S and 1R,3S,5S)-bicyclo[3.1.0]hexan-3-yl)-4-(4-(1,1-dioxidothiomorpholino)phenyl)oxazol-5-yl)-N-(1-cyanocyclopropyl) cyclohexanecarboxamide]	9.07	6.12
N#CC1(NC(=O)[C@@H]2CC(C(F)F)CC[C@H]2c2oc(-c3ccc(F)cc3)nc2-c2ccc(N3CCS(=O)(=O)CC3)cc2)CC1 (mixture of isomers) [Example 138, (1R,2R,5R and 1R,2R,5S)-N-(1-cyanocyclopropyl)-5-(difluoromethyl)-2-(4-(4-(1,1-dioxidothiomorpholino)phenyl)-2-(4-fluorophenyl)oxazol-5-yl)cyclohexanecarboxamide]	7.91	6.82
N#CC(NC(=O)[C@@H]1CCCC[C@H]1c1oc(-c2ccc(F)cc2)nc1-c1ccc(N2CCS(=O)(=O)CC2)cc1)C(F)(F)F (mixture of isomers) [Example 149, (1R,2R)-N-((S and R)-1-cyano-2,2,2-trifluoroethyl)-2-(4-(4-(1,1-dioxidothiomorpholino)phenyl)-2-(4-fluorophenyl)oxazol-5-yl)cyclohexanecarboxamide]	8.89	7.28
N#CC1(NC(=O)[C@@H]2CC3CC3C[C@H]2c2oc(-c3ccc(F)cn3)nc2-c2ccc(N3CCS(=O)(=O)CC3)cc2)CC1 (single isomer, unassigned) [Example 8, (1S,3R,4R,6R or 1R,3R,4R,6S)-N-(1-Cyanocyclopropyl)-4-(4-(4-(1,1-dioxidothiomorpholino)phenyl)-2-(5-fluoropyridin-2-yl)oxazol-5-yl)bicyclo[4.1.0]heptane-3-carboxamidc]	8.02	5.79
N#CC1(NC(=O)[C@@H]2CC3CC3C[C@H]2c2oc(-c3ccc(F)cn3)nc2-c2ccc(N3CCS(=O)(=O)CC3)cc2)CC1 (single isomer, unassigned) [Example 9, (1R,3R,4R,6S or 1S,3R,4R,6R)-N-(1-cyanocyclopropyl)-4-(4-(4-(1,1-dioxidothiomorpholino)phenyl)-2-(5-fluoropyridin-2-yl)oxazol-5-yl)bicyclo[4.1.0]heptane-3-carboxamide]	8.45	5.93
CC(C#N)NC(=O)[C@@H]1CCCC[C@H]1c1oc(-c2ccc(F)cc2F)nc1-c1ccc(N2CCS(=O)(=O)CC2)cc1 (single isomer, unassigned) [Example 45, (1R,2R)-N-((R or S)-1-cyanoethyl)-2-(2-(2,4-difluorophenyl)-4-(4-(1,1-dioxidothiomorpholino)phenyl)oxazol-5-yl)cyclohexanecarboxamide]	7.49	
CC(C#N)NC(=O)[C@@H]1CCCC[C@H]1c1oc(-c2ccc(F)cc2F)nc1-c1ccc(N2CCS(=O)(=O)CC2)cc1 (single isomer, unassigned) [Example 46, (1R,2R)-N-((S or R)-1-cyanoethyl)-2-(2-(2,4-difluorophenyl)-4-(4-(1,1-dioxidothiomorpholino)phenyl)oxazol-5-yl)cyclohexanecarboxamide]	9.18	6.64
CC(C#N)NC(=O)[C@@H]1CCCC[C@H]1c1oc(-c2ccc(F)cc2)nc1-c1ccc(N2CCS(=O)(=O)CC2)cc1 (single isomer, unassigned) [Example 121, (1R,2R)-N-((R or S)-1-cyanoethyl)-2-(4-(4-(1,1-dioxidothiomorpholino)phenyl)-2-(4-fluorophenyl)oxazol-5-yl)cyclohexanecarboxamide]	7.62	≤ 5.00
N#CC1(NC(=O)[C@@H]2CCCC[C@H]2c2oc(-c3ccc(F)cc3)nc2-c2ccc(N3CCOCC3)cc2)CC1 [Example 17, (1R,2R)-N-(1-cyanocyclopropyl)-2-(2-(4-fluorophenyl)-4-(4-morpholinophenyl)oxazol-5-yl)cyclohexanecarboxamide]	8.03	
N#CC1(NC(=O)[C@@H]2CCCC[C@H]2c2oc(N3CCOCC3)nc2-c2ccc(N3CCS(=O)(=O)CC3)cc2)CC1 [Example 47, (1R,2R)-N-(1-cyanocyclopropyl)-2-(4-(4-(1,1-dioxidothiomorpholino)phenyl)-2-morpholinooxazol-5-yl)cyclohexanecarboxamide]	8.51	
N#CC1(NC(=O)[C@@H]2CCCC[C@H]2c2oc(-c3ccc(Cl)c(F)c3)nc2-c2ccc(N3CCS(=O)(=O)CC3)cc2)CC1 [Example 76, (1R,2R)-2-(2-(4-chloro-3-fluorophenyl)-4-(4-(1,1-dioxidothiomorpholino)phenyl)oxazol-5-yl)-N-(1-cyanocyclopropyl) cyclohexanecarboxamide]	8.96	
N#CC1(NC(=O)[C@@H]2CCCC[C@H]2c2oc(-c3ccc(S(=O)(=O)C(F)(F)F)cc3)nc2-c2ccc(N3CCS(=O)(=O)CC3)cc2)CC1 [Example 104, (1R,2R)-N-(1-cyanocyclopropyl)-2-(4-(4-(1,1-dioxidothiomorpholino)phenyl)-2-(4-((trifluoromethyl)sulfonyl)phenyl)oxazol-5-yl)cyclohexanecarboxamide]	8.62	
N#CC1(NC(=O)[C@@H]2CCCC[C@H]2c2oc(-c3ccc(F)cc3F)nc2-c2ccc(C(=O)N3CCOCC3)cc2)CC1 [Example 120, (1R,2R)-N-(1-cyanocyclopropyl)-2-(2-(2,4-difluorophenyl)-4-(4-(morpholine-4-carbonyl)phenyl)oxazol-5-yl)cyclohexanecarboxamide]	7.84	

— patent US9458181B2, “Cathepsin cysteine protease inhibitors” (Merck Sharp & Dohme Corp., priority 2013, dated 2016)
